Source: article PMC9557727, “How an assembly factor enhances covalent FAD attachment to the flavoprotein subunit of complex II” (The Journal of Biological Chemistry, 2022)
Read-outs that look alike come from different tables or passages of the source.

How the values were obtained:
[1] = tested on: Thermus thermophilus succinate dehydrogenase; conditions: no sdhE gene; cited from earlier work
[2] = molecular target: T1, E. coli apo-SdhA (Escherichia coli, UniProt P0AC41); assay: biochemical; type: biochemical; conditions: for Covalent FAD attachment to apo-SdhA, SdhE-dependent: +SdhE 10.4 μM; for Covalent FAD attachment to apo-SdhA, SdhE-dependent / Covalent FAD attachment to apo-SdhA, SdhE-independent: ligand 20 mM
T1 construct: His6 (N); made in house; host or cells: E. coli RP437 ΔsdhE (RP-E), plasmid pCA24N-SdhA
Method: (§1) Unless specified, the reaction was performed in 50 mM potassium phosphate (pH 7.0) at 30 °C for 1 h. […] The reaction was started after addition of the appropriate flavinylation-promoting ligand at the as-indicated concentration. At different time points, the samples were mixed with 4× SDS loading buffer (Bio-Rad), and the sample loaded onto an SDS-PAGE gel (Bio-Rad; Any KdA). Following protein separation, the gel was incubated in 10% acetic acid/20% ethanol for 5 min. Upon illumination with UV light, complex II flavinylated flavoprotein is visible because of the fluorescence of the covalently bound flavin. The in-gel fluorescence of covalently attached FAD was detected using a Safe Imager 2.0 blue-light transilluminator (Thermo Fisher Scientific). The gel was then rinsed with water for 5 min and stained with Instant Blue stain (Expedeon). ImageJ (National Institutes of Health) software was used for quantification of covalently bound FAD levels and relative protein ratios. The isolated holo-SdhA/FrdA or SDHA–SDHAF2 complex were used as 100% covalent flavinylated controls. […] To do that, upon addition of fumarate, the sample (200 μl) was quickly mixed and filled into an automatic pipette. Each sample (15 μl) was then injected into a vial containing 5 μl of 4× SDS loading gel. This allowed collection of time points that are at 10 to 15 s intervals.

[3] = molecular target: T2, E. coli apo-FrdA (Escherichia coli, UniProt P00363); type: biochemical; conditions: ligand 20 mM, FAD 100 μM, 1 h, 30 °C; for Covalent FAD attachment to apo-FrdA, SdhE-dependent: +SdhE 10.4 μM
T2 construct: His6 (N); made in house; host or cells: E. coli RP437 ΔsdhE (RP-E), plasmid pCA24N-FrdA
Method: as §1

[4] = molecular target: T3, apo-SdhA (Escherichia coli, UniProt P0AC41); type: biochemical; design: His6 (N); made in house; host or cells: apo-SdhA: E. coli RP437 ΔsdhE (pCA24N-SdhA); conditions: 30 min at 37 °C; FAD 100 μM, SdhE 10.4 μM
Target sequence in this assay (P64559 whole entry): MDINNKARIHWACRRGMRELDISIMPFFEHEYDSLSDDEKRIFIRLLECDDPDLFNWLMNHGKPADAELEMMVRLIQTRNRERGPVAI
Target sequence in this assay (P0AC41 whole entry): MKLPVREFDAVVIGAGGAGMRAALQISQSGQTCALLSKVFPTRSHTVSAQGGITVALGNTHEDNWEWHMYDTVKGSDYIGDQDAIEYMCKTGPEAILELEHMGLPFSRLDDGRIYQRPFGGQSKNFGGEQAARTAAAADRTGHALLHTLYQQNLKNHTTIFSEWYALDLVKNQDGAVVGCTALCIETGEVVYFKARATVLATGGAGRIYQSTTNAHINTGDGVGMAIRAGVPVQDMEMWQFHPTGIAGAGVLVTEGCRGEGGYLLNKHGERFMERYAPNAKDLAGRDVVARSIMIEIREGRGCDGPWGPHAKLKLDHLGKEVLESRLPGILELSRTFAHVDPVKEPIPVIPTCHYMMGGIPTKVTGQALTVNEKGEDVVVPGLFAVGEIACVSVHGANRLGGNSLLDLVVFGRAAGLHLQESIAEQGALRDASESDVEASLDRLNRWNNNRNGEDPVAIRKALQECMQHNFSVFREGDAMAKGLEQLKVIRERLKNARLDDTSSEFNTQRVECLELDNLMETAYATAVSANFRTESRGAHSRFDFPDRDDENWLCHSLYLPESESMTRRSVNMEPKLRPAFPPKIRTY
Method: Apo-SdhA (2.8 μM) or apo-SDHA (4.3 μM) in 40 mM Hepes (pH 7.5) was incubated at 37 °C as follows: (1) no addition; (2) FAD (100 μM); (3) the assembly factors SdhE (10.4 μM) or SDHAF2 (8.4 μM); and (4) FAD (100 μM) plus appropriate assembly factors at the aforementioned concentrations. The incubation time was 15 min for SDHA and 30 min for SdhA. Corresponding control samples (with no additions) were held at 4 °C for the same time. After the incubation, the samples were transferred to 4 °C, and to all samples, including the control, either FAD and/or the assembly factor was added so that each sample contains 100 μM FAD and the appropriate assembly factor. Then 0.5 mM fumarate is added to each sample to initiate the flavinylation reaction. After 30 min incubation at 30 °C, 4× SDS sample buffer was added, and then in-gel fluorescence was determined as described previously.

[5] = design: method as in PMID 4752947, PMID 6263261, PMID 15884941; conditions: free FAD in solution; cited from earlier work
[6] = molecular target: T4, human apo-SDHA (Homo sapiens, UniProt P31040); assay: In vitro covalent flavinylation of human apo-SDHA; type: biochemical
T4 construct: His6 (N); made in house; host or cells: E. coli BL21(DE3), plasmid pQE-hSDHA
Method: as §1

[7] = molecular target: T3, apo-SdhA; assay: Determination of Kd for FAD by ultrafiltration; type: binding; design: His6 (N); made in house; host or cells: E. coli RP437 ΔsdhE (RP-E), plasmid pCA24N-SdhA; conditions: 50 mM Hepes pH 7.0, 21 °C
Method: The method is adapted from Mortarino et al. ([36]). […] The exact volume and the concentration of free flavin (ε^450 = 11.3 mM^−1 cm^−1) in the filtrate was measured, and it is assumed the free flavin (FAD^free) concentrations are the same in the filtrate and concentrated fractions. The total FAD in the concentrated fraction was calculated, and the excess over FAD^free corresponded to SdhA–noncovalent FAD. The Kd = [FAD^free][apo-SdhA]/[SdhA–FAD] was calculated from the amount of apo-SdhA determined by total protein concentration. The data are expressed as mean ± SD of four to five independent measurements.
Target sequence in this assay (P0AC41 whole entry): as above

[8] = molecular target: holo-SdhA–SdhE; design: method as in PMID 29348404; conditions: read-out: Kd for fumarate, holo-SdhA–SdhE complex; holo-SdhA with covalent FAD; cited from earlier work
[9] = tested on: Sulfolobus tokodaii succinate dehydrogenase; conditions: no sdhE gene; cited from earlier work
[10] = molecular target: T4, human apo-SDHA; design: method as in PMID 32887801; conditions: cited from earlier work
[11] = molecular target: T3, apo-SdhA; assay: Reduction/oxidation of FAD during SdhE-dependent flavinylation (absorbance at 452 nm); type: biochemical; design: His6 (N); made in house; host or cells: apo-SdhA: E. coli RP437 ΔsdhE (pCA24N-SdhA); conditions: 10 mM fumarate; 25 μM apo-SdhA, 20 μM FAD, 40 μM SdhE, 30 °C
Method: Spectral measurements and kinetics were performed by using an Agilent […] UV–visible spectrophotometer. For kinetic measurements, whole spectra (1 nm increments) were collected during the reaction at 1 to 5 s intervals.
Target sequence in this assay (P64559 whole entry): as the sequence (P64559 whole entry) above
Target sequence in this assay (P0AC41 whole entry): as the sequence (P0AC41 whole entry) above

[12] = molecular target: T3, apo-SdhA; assay: Hydrogen peroxide formation upon covalent flavinylation of SdhA (Amplex UltraRed); type: biochemical; design: His6 (N); made in house; host or cells: apo-SdhA: E. coli RP437 ΔsdhE (pCA24N-SdhA); conditions: apo-SdhA 2.8 μM, FAD 2.5 μM, SdhE 4.8 μM
Method: Upon covalent attachment, the flavin in SdhA became reduced and can be reoxidized by oxygen with formation of hydrogen peroxide. Amplex UltraRed was used to monitor the hydrogen peroxide formed. […] The reaction was started by addition of either 10 μM or 10 mM fumarate and hydrogen peroxide monitored by following the oxidation of Amplex UltraRed (567 nm) using an Agilent 8453 spectrophotometer.
Target sequence in this assay (P64559 whole entry): as the sequence (P64559 whole entry) above
Target sequence in this assay (P0AC41 whole entry): as the sequence (P0AC41 whole entry) above

[13] = +SdhE, 50 mM potassium phosphate pH 7.0, 0.1 mM FAD, 30 °C
[14] = read-out: k, ligand concentration for half-maximal flavinylation after 1 h incubation, +SdhE, 50 mM potassium phosphate pH 7.0, 0.1 mM FAD, 30 °C, 1 h

T2 sequence (P00363 whole entry): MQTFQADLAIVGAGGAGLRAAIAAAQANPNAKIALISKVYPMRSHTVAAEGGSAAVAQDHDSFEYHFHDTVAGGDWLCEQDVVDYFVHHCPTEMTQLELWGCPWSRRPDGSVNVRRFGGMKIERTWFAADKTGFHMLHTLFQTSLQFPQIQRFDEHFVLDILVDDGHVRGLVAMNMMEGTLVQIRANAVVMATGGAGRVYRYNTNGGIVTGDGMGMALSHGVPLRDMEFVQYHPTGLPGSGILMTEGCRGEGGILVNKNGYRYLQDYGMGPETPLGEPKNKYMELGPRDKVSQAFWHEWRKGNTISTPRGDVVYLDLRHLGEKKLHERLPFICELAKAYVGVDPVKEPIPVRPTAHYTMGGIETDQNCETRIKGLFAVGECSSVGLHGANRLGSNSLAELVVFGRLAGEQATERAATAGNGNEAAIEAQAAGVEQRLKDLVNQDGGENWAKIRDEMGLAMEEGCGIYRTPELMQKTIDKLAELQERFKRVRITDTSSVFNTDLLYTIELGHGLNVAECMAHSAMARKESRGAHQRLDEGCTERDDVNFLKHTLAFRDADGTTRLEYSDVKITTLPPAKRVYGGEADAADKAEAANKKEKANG
T1 sequence (P0AC41 whole entry): as the sequence (P0AC41 whole entry) above
T4 sequence (P31040 43-664): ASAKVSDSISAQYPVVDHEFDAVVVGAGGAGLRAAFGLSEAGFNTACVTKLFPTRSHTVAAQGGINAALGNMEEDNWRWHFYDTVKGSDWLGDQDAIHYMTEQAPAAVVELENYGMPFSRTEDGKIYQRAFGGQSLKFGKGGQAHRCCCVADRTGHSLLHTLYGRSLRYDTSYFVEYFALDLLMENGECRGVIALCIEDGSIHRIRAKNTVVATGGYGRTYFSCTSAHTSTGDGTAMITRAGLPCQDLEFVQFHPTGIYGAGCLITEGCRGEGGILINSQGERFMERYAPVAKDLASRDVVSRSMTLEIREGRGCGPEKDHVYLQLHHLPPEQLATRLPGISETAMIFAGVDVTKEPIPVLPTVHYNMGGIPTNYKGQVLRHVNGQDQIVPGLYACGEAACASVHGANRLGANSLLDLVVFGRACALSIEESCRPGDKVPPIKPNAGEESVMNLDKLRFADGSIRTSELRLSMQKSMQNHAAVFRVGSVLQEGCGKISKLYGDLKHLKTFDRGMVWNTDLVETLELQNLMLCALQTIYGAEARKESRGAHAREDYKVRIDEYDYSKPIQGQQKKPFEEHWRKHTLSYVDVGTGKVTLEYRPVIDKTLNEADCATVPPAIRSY

Row | SMILES | Initiation of flavinylation in Thermus thermophilus [1] | Covalent FAD attachment to apo-SdhA, SdhE-dependent ([2]; FAD 100 μM, 1 h, 30 °C) | Covalent FAD attachment to apo-FrdA, SdhE-dependent [3] | Covalent FAD attachment to apo-FrdA, SdhE-independent [3] | K, apparent first-order rate constant of covalent flavinylation, +SdhE [2, 13] [min⁻¹] | Covalent FAD attachment to apo-SdhA, SdhE-independent ([2]; −SdhE, FAD 100 μM, 1 h, 30 °C) | other results
1 | O=C(O)CC(=O)C(=O)O [oxaloacetate] | quite proficient | high levels | high levels | partially effective |  |  | 
2 | Cc1cc2nc3c(=O)[nH]c(=O)nc-3n(C[C@H](O)[C@H](O)[C@H](O)COP(=O)(O)OP(=O)(O)OC[C@H]3O[C@@H](n4cnc5c(N)ncnc54)[C@H](O)[C@@H]3O)c2cc1C [FAD] |  |  |  |  |  |  | Protection of apo-SdhA against thermal inactivation of the flavinylation reaction [4]: does not afford enhanced stability and protection; Redox potential Em of free FAD [5]: −219 mV; FAD requirement for maximum flavinylation of SdhA ([2]; +SdhE, fumarate 10 mM, apo-SdhA 6 μM, 1 h, 30 °C): stoichiometric ratios of FAD to apo-SdhA; EC50 ([2]; −SdhE, fumarate 10 mM, apo-SdhA 6 μM, 1 h, 30 °C, read-out: FAD concentration for half-maximal flavinylation of SdhA): ~20 µM; Increase in FAD concentration required for 50% flavinylation without SDHAF2 versus SDHAF2-dependent reaction ([6]; fumarate-only SDHA flavinylation): fivefold; Kd ([7]; read-out: Estimated apparent Kd for FAD, apo-SdhA in the presence of SdhE, +SdhE 12.5 μM): 1.3 ± 0.5 µM; Kd ([7]; without SdhE, read-out: Estimated apparent Kd for FAD, apo-SdhA alone): 14.4 ± 1.7 µM
3 | O=C(O)CC(=O)O [malonate] |  | ~30% | ~30% |  |  |  | 
4 | CC(=O)O [acetate] |  | ~30% | ~30% |  |  |  | 
5 | O=C(O)CC(O)C(=O)O (centres unmarked) [Malate, malate] | quite proficient | high levels | high levels |  | 0.3 | partially effective | EC50 [2]: 10 µM
6 | O=C(O)CC(O)(CC(=O)O)C(=O)O [citrate] |  | able to induce | able to induce |  |  |  | 
7 | O=C(O)/C=C/C(=O)O [Fumarate] | quite proficient | high levels | high levels | complete | 1.7 | complete | Kd [8]: 64 µM; Initiation of flavinylation in Sulfolobus tokodaii [9]: proficient flavinylation; EC50 ([10]; +SDHAF2, read-out: Concentration of fumarate needed to achieve 50% flavinylation, with SDHAF2): 16 µM; k, rate of covalent flavinylation of SDHA, + SDHAF2 [10]: 0.15 min⁻¹; k app, fast phase (reduction of FAD) [11]: ~7 min⁻¹; k app, second slower phase (reoxidation of reduced flavin) [11]: ~0.1 min⁻¹; Fumarate concentration giving complete flavinylation of apo-SdhA ([2]; +SdhE, apo-SdhA 6 μM, FAD 100 μM, 1 h, 30 °C): ~1 µM; EC50 [2, 14]: < 1 µM; k, apparent first-order rate constant of covalent flavinylation, −SdhE ([2]; −SdhE, 50 mM potassium phosphate pH 7.0, 0.1 mM FAD, 30 °C): 0.1 min⁻¹; k, apparent first-order rate constant of covalent flavinylation, −SdhE ([2]; −SdhE, 50 mM potassium phosphate pH 7.0, 0.1 mM FAD, 30 °C, listed as fumarate): 0.095 min⁻¹; Saturation level of SDHAF2-independent flavinylation relative to SDHAF2-dependent flavinylation ([6]; −SDHAF2, 60 mM fumarate, 100 μM FAD, time course): ~70%; k, rate of covalent flavinylation of SDHA, − SDHAF2 ([6]; −SDHAF2, 60 mM fumarate, 100 μM FAD, assuming 70% of protein capable of flavinylation): 0.032 min⁻¹; EC50 ([6]; −SDHAF2, fumarate concentration for 50% flavinylation, read-out: K (fum), − SDHAF2): 12000 µM; SDHAF2-independent flavinylation of SDHA relative to flavinylation in the presence of SDHAF2 ([6]; −SDHAF2, ligand 20 mM, FAD 100 μM, 1 h, 37 °C): ~40%; Hydrogen peroxide formation on induction of flavinylation ([12]; 10 μM fumarate): significant increase in hydrogen peroxide; Hydrogen peroxide formation on induction of flavinylation ([12]; 10 mM fumarate): very low release of hydrogen peroxide
8 | N[C@@H](CC(=O)O)C(=O)O [Aspartate, L-aspartate] |  | high levels | high levels | partially effective | 0.1 |  | EC50 [2]: 26 µM
9 | O=C(O)CCC(=O)O [Succinate, succinate] | quite proficient | high levels | high levels |  | 0.7 | partially effective | Initiation of flavinylation in Sulfolobus tokodaii [9]: proficient flavinylation; EC50 [2, 14]: 1 µM
10 | CC(=O)C(=O)O [Pyruvate] |  | able to induce | able to induce |  |  |  | 
